Test results as given in patent US20150289795A1, “METHODS AND KITS FOR THE PROGNOSIS OF COLORECTAL CANCER” (INSTITUCIÓ CATALANA DE RECERCA I ESTUDIS AVANÇATS, priority 2012, published 2015).

Tests used:
[1] = system: colon cancer stem cells derived from a stage IV patient; assay: liver metastasis after intrasplenic inoculation of CoCSCs, bioluminescence; assay type: in vivo, NSG mice
Source text: (§1) A. Kaplan Meier curves show tumour free survival over time for mice injected subcutaneously with colon cancer stem cells derived from a stage IV patient, treated or not with a TGF beta inhibitor (LY2157299). Mice received LY2157299 or vehicle from three days prior to inoculation until sacrifice (n=12) B. Bioluminescence over time after intrasplenic inoculation of 5×10^5 colon cancer stem cells derived from a stage IV patient in NSG mice treated as in A. Intensities were normalized to day 0 and arbitrarily set to 100. Values are mean±SEM (*: p<0.05).
All experiments with mouse models were approved by the animal care and use committee of the Barcelona Science Park (CEEA-PCB) and the Catalan Government. Cells were injected subcutaneously in 5 to 6 weeks old Swiss nude or NSG mice, (Jackson Labs), which were followed for the periods described. Tumour appearance was assessed by palpation. […]
Mice were anaesthetized, injected retro-orbitally with D-luciferin (Promega) and imaged for luciferase activity as previously described (Minn et al., 2005; J Clin Invest 115, 44-55). Luciferase activity measured immediately after cell injection was used to exclude any mice that were not successfully xenografted and to normalize bioluminescence. […]

[2] = system: colon cancer stem cells derived from a stage IV patient; assay: subcutaneous tumour formation by primary CoCSC-derived cells in mice; assay type: in vivo; settings: 2 mg twice a day per os, from three days prior to inoculation until sacrifice; FIG. 12A
Source text: as §1
All experiments with mouse models were approved by the animal care and use committee of the Barcelona Science Park (CEEA-PCB) and the Catalan Government. Cells were injected subcutaneously in 5 to 6 weeks old Swiss nude or NSG mice, (Jackson Labs), which were followed for the periods described. Tumour appearance was assessed by palpation. Five to six weeks old Balb/c nude or NSG mice (Jackson Labs) were used to perform metastasis experiments by intra-splenic injection (Warren et al., 1995, J. Clin. Invest. 95, 1789-1797) […]

[3] = system: CoCSC-derived culture (TGFBR2-mutant tumour organoids of a Stage IV CRC patient); assay: in vitro growth of CoCSC-derived tumour organoid culture; assay type: cell-based, human; settings: both TGFBR2 alleles inactivated, data not shown
Source text: The purification of Colon Cancer CoCSCs from CRC biopsies is described elsewhere (Merlos-Suarez et al., 2011, Cell Stem Cell 8, 511-524). We isolated CoCSCs from the primary tumour of a Stage IV CRC patient and cultured them as epithelial tumour organoids as described in (Jung et al., 2011; Nat Med 17, 1225-1227; Sato et al., 2011; Gastroenterology 141, 1762-1772). […] When injected in immunodeficient mice, they generated tumours with abundant p-SMAD2+ stromal cells, implying that this primary CoCSCs elicited a TGF-beta response in the tumour microenvironment (data not shown).

[4] = system: TGF-beta signalling (p-SMAD2); assay: TGF-beta signalling and target gene mRNA in pre-established xenografts; assay type: in vivo, mice; settings: tenfold higher dosed treatment for 3 days
Source text: The TGF-beta receptor I kinase antagonist, LY2157299, developed by Eli Lilly (Beight, 2004, Eli Lilly and Co. PCT Int. Appl. In PCT Int. Appl. WO2004048382A1; Bueno et al., 2008; Eur J Cancer 44, 142-150) was synthesized following the procedure described (Mundla, 2007; Eli Lilly and Company. PCT Int. Appl. WO2007018818A1. In, (USA)). TGF-beta receptor type I inhibitor LY2157299 was suspended in a formulation (vehicle) composed of 1% sodium carboxy methylcellulose (NaCMC), 0.4% sodium lauryl sulfate (SLS), 0.05% anti-foam and 0.085% polyvinylpyrrolidone (PVP) in a concentration of 6.67 mg mL^−1. Mice were dosed twice a day with 2 mg in 300 μL (2 mg) per os. starting 3 days before CRC cell lines inoculation. A tenfold higher dosed treatment for 3 days was used to show TGF-beta signalling (p-SMAD2) and target gene mRNA downregulation in pre-established xenografts.

Row | Compound | number of cells that engrafted the liver immediately after inoculation ([1]; kinetics of metastatic colonization, FIG. 12B inset) | formation of liver metastasis by CoCSCs inoculated via the spleen ([1]; same regime, 5×10^5 cells intrasplenic, NSG mice, FIG. 12B) | formation of subcutaneous tumours (tumour free survival) [2] | in vitro growth rates, morphology or organoid forming activity [3] | TGF-beta signalling (p-SMAD2) and target gene mRNA [4]
1 | Cc1cccc(-c2nn3c(c2-c2ccnc4ccc(C(N)=O)cc24)CCC3)n1 [LY2157299, 2-(6-methyl-pyridin-2-yl)-3-[6-amido-quinolin-4-yl)-5,6-dihydro-4H-pyrrolo[1,2-b]pyrazole] | reduced the number of cells that engrafted the liver | reduced formation of liver metastasis | conferred resistance to the formation of subcutaneous tumours | did not modify | downregulation
2 | active TGF-beta: active TGF-beta added to the CoCSC-derived culture | – | – | – | did not modify | –
